In patent US20250154099A1, “PREPARATION METHOD OF 2-PHENYLINDOLE DERIVATIVES AND APPLICATION THEREOF” (Shihezi University, priority 2022, published 2025):
≈ marks a conversion by molar mass, not a printed value. Where two headings read alike, the source gives them in different places.

Tests used:
Format in all cases: cell-based
[1] = tested on: Staphylococcus aureus BNCC186335; experiment: MIC by microdilution method, sensitive Staphylococcus aureus; conditions: read-out: MIC Staphylococcus aureus
Excerpt: (§1) Used bacteria: including drug-resistant bacteria and sensitive bacteria: the used sensitive strains include Cryptococcus neoformans BNCC225501, Candida albicans BNCC186382, Aspergillus fumigatus Fresenius BNCC338385, Escherichia coli BNCC336902, Staphylococcus aureus BNCC186335 and Pseudomonas aeruginosa Migula BNCC337940, and the used drug-resistant Candida albicans is clinically isolated azole multi-drug resistant Candida albicans (CA10) donated by Qianfoshan Hospital in Shandong Province. The strains are stored in normal saline containing 20% glycerol at −80° C. for a long time. Before operation, the strains are lined and transferred to a YPD solid plate, and subjected to static culture at 30° C. for 24 h; single colonies are selected and transferred to a YPD liquid medium, and cultured at 200 rpm at 30° C. overnight; and the overnight cultured bacterial solution is inoculated into a new YPD liquid medium at a ratio of about 1:100, and subjected to shaking culture at 200 rpm at 30° C. for 4 h so that Candida albicans is in a logarithmic phase.
(§2) Culture medium: the culture medium used by the microdilution method is RPMI-1640 culture medium (Gibco).
(§3) 1.2 Operation and results of detection of minimum inhibitory concentration (MIC) of the compounds and the azole drugs by the microdilution method: the MIC of the synthesized compound and the azole drug fluconazole for the standard strains is detected by the microdilution method according to fungal sensitivity detection method (M27-A3) established by the Clinical and Laboratory Standards Institute (CLSI). Specific steps are as follows: the prepared strain concentration is adjusted to 0.5-2.5×10^3 CFU/mL by using RPMI-1640 medium. 200 μL of bacterial solution containing the highest concentration of the drug to be detected is added into the first well of a 96-well plate, and 100 μL of blank bacterial solution without drug is added into each of the other wells; the bacterial solution is diluted to a series of concentration gradients by a double gradient dilution method; the well plate is subjected to static culture at constant temperature of 35° C. for 24 h; after the absorbance (OD) of each concentration gradient at 570 nm is detected by a microplate reader and the absorbance of a blank medium is subtracted, the growth rate=dosing hole value/control hole value ×100%, the inhibition rate=1−growth rate, and the minimum concentration with the inhibition rate greater than 80% is the minimum inhibitory concentration (MIC) value.

[2] = tested on: Escherichia coli BNCC336902; experiment: MIC by microdilution method, sensitive Escherichia coli; conditions: read-out: MIC Escherichia coli
Excerpt: as §1, §2, §3

[3] = tested on: Pseudomonas aeruginosa Migula BNCC337940; experiment: MIC by microdilution method, sensitive Pseudomonas aeruginosa Migula; conditions: 24 h, read-out: MIC Pseudomonas aeruginosa Migula
Excerpt: as §1, §2, §3

[4] = tested on: Candida albicans BNCC186382; experiment: MIC by microdilution method, sensitive Candida albicans; conditions: for MIC: Candida albicans, read-out: MIC Candida albicans
Excerpt: as §1, §2, §3

[5] = tested on: Cryptococcus neoformans BNCC225501; experiment: MIC by microdilution method, sensitive Cryptococcus neoformans; conditions: for MIC: Cryptococcus neoformans, read-out: MIC Cryptococcus neoformans
Excerpt: as §1, §2, §3

[6] = tested on: Aspergillus fumigatus Fresenius BNCC338385; experiment: MIC by microdilution method, sensitive Aspergillus fumigatus Fresenius; conditions: 24 h; for MIC: Aspergillus fumigatus, read-out: MIC Aspergillus fumigatus Fresenius
Excerpt: as §1, §2, §3

[7] = tested on: Drug-resistant Candida albicans CA10; experiment: MIC by microdilution method, drug-resistant Candida albicans CA10; conditions: clinically isolated azole multi-drug resistant strain CA10; 24 h
Excerpt: as §1, §2, §3

[8] = tested on: Candida albicans CA10; experiment: Checkerboard microdilution assay of compound combined with fluconazole, FICI model; conditions: Candida albicans; CA10; fluconazole alone; read-out: MIC of azole (fluconazole) used separately
Procedure: The concentration of Candida albicans CA10 is adjusted to 0.5-2.5×10^3 CFU/mL by using RPMI-1640 medium, and the diluted bacterial solution is used for preparing a working solution of the compound and the azole drug with double concentration gradient. 50 μl of working solution of double concentration of azole drugs and working solution of double concentration of the compound to be detected at each concentration gradient are added in the longitudinal (A-H) direction and transverse (1-12) direction of the 96-well plate respectively, so that the final drug concentration range of fluconazole is 4-64 μg/ml, and the drug concentration range of the compound is 256-16 μg/ml. The 96-well plate is cultured in a constant temperature incubator at 35° C. for 24 h. The amount of viable bacteria is detected with an XTT cell proliferation assay kit, and the absorbance of each well at 490 nm wavelength is detected by the microplate reader. Growth rate=dosing well value/control well value×100%, and inhibition rate=1−growth rate. The MIC when the inhibition rate is about 80% is a break point of the combination of two drugs.
The combination data of the compound and the azole drug collected by the checkerboard microdilution assay are analyzed by an FICI (fractional inhibitory concentration index) model, and the interaction effects are evaluated.
The FICI model can be expressed by the following formula: […]
Wherein: MICA and MICB are MIC values of drug A and drug B used separately, while MICAB and MICBA are the concentrations of drug A and drug B corresponding to the minimum effective dose of the combination of drug A and drug B.

[9] = BNCC186335, sensitive strain, 35° C., 24 h, minimum concentration with inhibition rate greater than 80%
[10] = BNCC336902, sensitive strain, 35° C., 24 h, minimum concentration with inhibition rate greater than 80%
[11] = sensitive strain, 35° C., minimum concentration with inhibition rate greater than 80%
[12] = BNCC186382, sensitive strain, 35° C., 24 h, minimum concentration with inhibition rate greater than 80%
[13] = BNCC225501, sensitive strain, 35° C., 24 h, minimum concentration with inhibition rate greater than 80%
[14] = sensitive strain, 35° C., 24 h, minimum concentration with inhibition rate greater than 80%

Row | MIC [1, 9] [µg/mL] | MIC [2, 10] [µg/mL] | MIC [3, 11] [µg/mL] | MIC [4, 12] [µg/mL] | MIC [5, 13] [µg/mL] | MIC [6, 11] [µg/mL] | MIC Candida albicans [4, 14] [µg/mL] | MIC Cryptococcus neoformans [5, 14] [µg/mL] | MIC Aspergillus fumigatus Fresenius [6, 11] [µg/mL] | MIC [8] [µg/mL] | Compound | MIC ([4]; BNCC186382, 24 h) [µg/mL] | MIC ([5]; BNCC225501, 24 h) [µg/mL] | MIC [6] [µg/mL] | MIC ([1]; BNCC186335, 24 h) [µg/mL] | MIC ([2]; BNCC336902, 24 h) [µg/mL] | MIC [3] [µg/mL] | MIC80 Drug-resistant Candida albicans CA10 [7] [µg/mL]
1 | 2 (≈ 3.44 µM) | 2 (≈ 3.44 µM) | 2 (≈ 3.44 µM) |  |  |  |  |  |  |  | [H]/N=C(/N)N[C@H]1[C@H](O)[C@@H](O)[C@H](O[C@@H]2O[C@@H](C)[C@](O)(C=O)[C@H]2O[C@@H]2O[C@@H](CO)[C@H](O)[C@@H](O)[C@@H]2NC)[C@@H](N/C(N)=N\[H])[C@@H]1O [Streptomycin, reference compound] |  |  |  |  |  |  | 
2 |  |  |  |  |  |  |  |  |  |  | Fc1ccc(-c2cc3ccccc3[nH]2)cc1 [Compound 10] | > 256 | > 256 | > 256 | > 256 | > 256 | > 256 | > 256
3 | 16 (≈ 75.7 µM) | 32 (≈ 151 µM) | 256 (≈ 1210 µM) | 256 (≈ 1210 µM) | 8 (≈ 37.9 µM) | 256 (≈ 1210 µM) |  |  |  |  | Fc1ccc2[nH]c(-c3ccccc3)cc2c1 [Compound 22] |  |  |  |  |  |  | > 256
4 |  |  |  |  |  |  |  |  |  |  | Clc1ccc(-c2cc3ccccc3[nH]2)cc1 [Compound 11] | > 256 | > 256 | > 256 | > 256 | > 256 | > 256 | > 256
5 | > 256 | > 256 | > 256 | > 256 | > 256 | > 256 |  |  |  |  | Clc1ccc2[nH]c(-c3ccccc3)cc2c1 [Compound 21] |  |  |  |  |  |  | > 256
6 |  |  |  |  |  |  |  |  |  |  | Cc1ccc(-c2cc3ccccc3[nH]2)cc1 [Compound 8] | 256 (≈ 1240 µM) | 256 (≈ 1240 µM) | 256 (≈ 1240 µM) | 256 (≈ 1240 µM) | 8 (≈ 38.6 µM) | 256 (≈ 1240 µM) | > 256
7 |  |  |  |  |  |  |  |  |  |  | O=[N+]([O-])c1cccc(-c2cc3ccccc3[nH]2)c1 [Compound 12] | 4 (≈ 16.8 µM) | 8 (≈ 33.6 µM) | 4 (≈ 16.8 µM) | 256 (≈ 1070 µM) | 8 (≈ 33.6 µM) | 2 (≈ 8.39 µM) | > 256
8 |  |  |  |  |  |  | 2 (≈ 2.16 µM) | 64 (≈ 69.3 µM) | 16 (≈ 17.3 µM) |  | C[C@@H]1[C@H](O)[C@@H](C)/C=C/C=C/C=C/C=C/C=C/C=C/C=C/[C@H](O[C@@H]2O[C@H](C)[C@@H](O)[C@H](N)[C@@H]2O)C[C@@H]2O[C@](O)(C[C@@H](O)C[C@@H](O)[C@H](O)CC[C@@H](O)C[C@@H](O)CC(=O)O[C@H]1C)C[C@H](O)[C@H]2C(=O)O [Amphotericin B, amphotericin B, reference compound] |  |  |  |  |  |  | 
9 |  |  |  |  |  |  |  |  |  |  | FC(F)(F)c1ccc(-c2cc3ccccc3[nH]2)cc1 [Compound 13] | 256 (≈ 980 µM) | 256 (≈ 980 µM) | 256 (≈ 980 µM) | 256 (≈ 980 µM) | 256 (≈ 980 µM) | 16 (≈ 61.2 µM) | > 256
10 |  |  |  |  |  |  |  |  |  |  | c1ccc2[nH]c(-c3ccc4c(c3)OCO4)cc2c1 [Compound 15] | 256 (≈ 1080 µM) | 256 (≈ 1080 µM) | 256 (≈ 1080 µM) | 256 (≈ 1080 µM) | 256 (≈ 1080 µM) | 16 (≈ 67.4 µM) | > 256
11 |  |  |  |  |  |  |  |  |  |  | COc1cccc(-c2cc3ccccc3[nH]2)c1 [Compound 1] | 16 (≈ 71.7 µM) | 4 (≈ 17.9 µM) | 8 (≈ 35.8 µM) | 64 (≈ 287 µM) | 4 (≈ 17.9 µM) | 8 (≈ 35.8 µM) | > 256
12 | 8 (≈ 31.8 µM) | 256 (≈ 1020 µM) | 32 (≈ 127 µM) | 8 (≈ 31.8 µM) | 256 (≈ 1020 µM) | 16 (≈ 63.7 µM) |  |  |  |  | COC(=O)c1ccc2[nH]c(-c3ccccc3)cc2c1 [Compound 19] |  |  |  |  |  |  | > 256
13 | 256 (≈ 1240 µM) | 16 (≈ 77.2 µM) | 256 (≈ 1240 µM) | 256 (≈ 1240 µM) | 256 (≈ 1240 µM) | 256 (≈ 1240 µM) |  |  |  |  | Cc1ccc2[nH]c(-c3ccccc3)cc2c1 [Compound 16] |  |  |  |  |  |  | > 256
14 |  |  |  |  |  |  |  |  |  |  | Cc1cccc(-c2cc3ccccc3[nH]2)c1 [Compound 7] | 256 (≈ 1240 µM) | 256 (≈ 1240 µM) | 256 (≈ 1240 µM) | 8 (≈ 38.6 µM) | 8 (≈ 38.6 µM) | 256 (≈ 1240 µM) | > 256
15 | 256 (≈ 1150 µM) | 256 (≈ 1150 µM) | 256 (≈ 1150 µM) | 256 (≈ 1150 µM) | 256 (≈ 1150 µM) | 256 (≈ 1150 µM) |  |  |  |  | COc1ccc2[nH]c(-c3ccccc3)cc2c1 [Compound 18] |  |  |  |  |  |  | > 256
16 | 256 (≈ 1150 µM) | 256 (≈ 1150 µM) | 64 (≈ 287 µM) | 256 (≈ 1150 µM) | 256 (≈ 1150 µM) | 256 (≈ 1150 µM) |  |  |  |  | COc1ccc2cc(-c3ccccc3)[nH]c2c1 [Compound 3] |  |  |  |  |  |  | > 256
17 |  |  |  | 2 (≈ 6.53 µM) | 2 (≈ 6.53 µM) | 2 (≈ 6.53 µM) |  |  |  | > 128 | OC(Cn1cncn1)(Cn1cncn1)c1ccc(F)cc1F [Fluconazole, fluconazole, reference compound] |  |  |  |  |  |  | > 128
18 | 32 (≈ 127 µM) | 256 (≈ 1020 µM) | 8 (≈ 31.8 µM) | 32 (≈ 127 µM) | 256 (≈ 1020 µM) | 256 (≈ 1020 µM) |  |  |  |  | COC(=O)c1ccc2cc(-c3ccccc3)[nH]c2c1 [Compound 20] |  |  |  |  |  |  | > 256
19 |  |  |  |  |  |  |  |  |  |  | c1ccc(-c2cc3ccccc3[nH]2)cc1 [Compound 6] | > 256 | 256 (≈ 1320 µM) | > 256 | > 256 | > 256 | > 256 | > 256
20 | 256 (≈ 941 µM) | 256 (≈ 941 µM) | 8 (≈ 29.4 µM) | 256 (≈ 941 µM) | 256 (≈ 941 µM) | 256 (≈ 941 µM) |  |  |  |  | Brc1ccc2cc(-c3ccccc3)[nH]c2c1 [Compound 23] |  |  |  |  |  |  | > 256
